Data published in ChEMBL document CHEMBL3046293, “Fungicidal Activities of -Methoxyphenylacetic Acid Derivatives” (2002).

What was measured:
Type in all cases: functional
Botrytis cinerea [1] = test: Fungicidal activity against Botryotinia fuckeliana assessed as cucumber gray mold disease control at 500 ppm treated 24 hr before inoculation by preventive manner
Podosphaera fuliginea [2] = test: Fungicidal activity against Podosphaera fuliginea assessed as cucumber powdery mildew disease control at 500 ppm treated 24 hr before inoculation by preventive manner
Pyricularia oryzae [3] = test: Fungicidal activity against Magnaporthe oryzae Cav. race 003 assessed as rice blast disease control at 500 ppm treated 24 hr before inoculation by preventive manner
Podosphaera fuliginea [4] = test: Fungicidal activity against Podosphaera fuliginea assessed as cucumber powdery mildew disease control at 125 ppm treated 24 hr before inoculation by preventive manner
Podosphaera fuliginea [5] = test: Fungicidal activity against Podosphaera fuliginea assessed as cucumber powdery mildew disease control at 31.3 ppm treated 24 hr before inoculation by preventive manner
Pyricularia oryzae [6] = test: Fungicidal activity against Magnaporthe oryzae Cav. race 003 assessed as rice blast disease control at 125 ppm treated 24 hr before inoculation by preventive manner
Podosphaera fuliginea [7] = test: Fungicidal activity against Podosphaera fuliginea assessed as cucumber powdery mildew disease control at 7.8 ppm treated 24 hr before inoculation by preventive manner
Botrytis cinerea [8] = test: Fungicidal activity against Botryotinia fuckeliana assessed as cucumber gray mold disease control at 7.8 ppm treated 24 hr before inoculation by preventive manner

Row | Structure (SMILES) | Activity (Botrytis cinerea [1]) [%] | Activity (Podosphaera fuliginea [2]) [%] | Activity (Pyricularia oryzae [3]) [%] | Activity (Podosphaera fuliginea [4]) [%] | Activity (Podosphaera fuliginea [5]) [%] | Activity (Pyricularia oryzae [6]) [%] | Activity (Podosphaera fuliginea [7]) [%] | Activity (Botrytis cinerea [8]) [%]
1 | CNC(=O)C(OC)c1cccc(Oc2ccccc2)c1 (stereo not drawn) | <50 | <90 | <90 | – | – | – | – | –
2 | CNC(=O)C(OC)c1cccc(Oc2cccc(C)c2)c1 (stereo not drawn) | <50 | <90 | <90 | – | – | – | – | –
3 | CNC(=O)C(OC)c1cccc(Oc2ccc(C)cc2)c1 (stereo not drawn) | <50 | <90 | <90 | – | – | – | – | –
4 | CNC(=O)C(OC)c1cccc(Oc2ccc(C)c(C)c2)c1 (stereo not drawn) | <50 | – | <90 | 90 | – | – | – | –
5 | CNC(=O)C(OC)c1cccc(Oc2cc(C)cc(C)c2)c1 (stereo not drawn) | <50 | – | <90 | – | 90 | – | – | –
6 | COC(=O)C(OC)c1cccc(Oc2ccc(C)c(C)c2)c1 (stereo not drawn) | <50 | 90 | <90 | – | – | – | – | –
7 | COC(=O)C(OC)c1cccc(Oc2cc(C)cc(C)c2)c1 (stereo not drawn) | <50 | 90 | <90 | – | – | – | – | –
8 | COC(=O)C(OC)c1cccc(COc2ccccc2)c1 (stereo not drawn) | <50 | – | <90 | 90 | – | – | – | –
9 | COC(=O)C(OC)c1cccc(COc2ccccc2Cl)c1 (stereo not drawn) | 50 | – | – | 90 | – | 90 | – | –
10 | COC(=O)C(OC)c1cccc(COc2ccc(Cl)cc2)c1 (stereo not drawn) | <50 | – | <90 | 90 | – | – | – | –
11 | COC(=O)C(OC)c1cccc(COc2ccccc2C)c1 (stereo not drawn) | 50 | – | – | 90 | – | 90 | – | –
12 | COC(=O)C(OC)c1cccc(COc2cccc(C)c2)c1 (stereo not drawn) | <50 | – | <90 | 90 | – | – | – | –
13 | COC(=O)C(OC)c1cccc(COc2ccc(C)cc2)c1 (stereo not drawn) | <50 | – | <90 | 90 | – | – | – | –
14 | CCc1ccccc1OCc1cccc(C(OC)C(=O)OC)c1 (stereo not drawn) | <50 | <90 | <90 | – | – | – | – | –
15 | COC(=O)C(OC)c1cccc(COc2ccc(Cl)cc2Cl)c1 (stereo not drawn) | <50 | – | <90 | – | – | – | 90 | –
16 | COC(=O)C(OC)c1cccc(COc2cc(Cl)cc(Cl)c2)c1 (stereo not drawn) | <50 | – | <90 | 90 | – | – | – | –
17 | COC(=O)C(OC)c1cccc(COc2cccc(C)c2C)c1 (stereo not drawn) | <50 | <90 | 90 | – | – | – | – | –
18 | COC(=O)C(OC)c1cccc(COc2ccc(C)cc2C)c1 (stereo not drawn) | 50 | <90 | 90 | – | – | – | – | –
19 | COC(=O)C(OC)c1cccc(COc2cc(C)ccc2C)c1 (stereo not drawn) | 50 | <90 | – | – | – | 90 | – | –
20 | CNC(=O)C(OC)c1cccc(COc2ccccc2)c1 (stereo not drawn) | 50 | – | <90 | 90 | – | – | – | –
21 | CNC(=O)C(OC)c1cccc(COc2ccccc2F)c1 (stereo not drawn) | 50 | – | 90 | – | 90 | – | – | –
22 | CNC(=O)C(OC)c1cccc(COc2ccccc2Cl)c1 (stereo not drawn) | <50 | – | 90 | – | – | – | 90 | –
23 | CNC(=O)C(OC)c1cccc(COc2cccc(Cl)c2)c1 (stereo not drawn) | 50 | – | <90 | – | 90 | – | – | –
24 | CNC(=O)C(OC)c1cccc(COc2ccc(Cl)cc2)c1 (stereo not drawn) | <50 | – | <90 | – | 90 | – | – | –
25 | CNC(=O)C(OC)c1cccc(COc2ccccc2C)c1 (stereo not drawn) | – | – | 90 | – | – | – | 90 | 50
26 | CNC(=O)C(OC)c1cccc(COc2cccc(C)c2)c1 (stereo not drawn) | <50 | – | 90 | 90 | – | – | – | –
